Paper PMC6522510 (Nature Communications, 2019)
Where two headings read alike, the source gives them in different places.

Columns and labels:
MV4-11 [1] = assay: Secondary dose-response HTS, Cell Titer Glo; format: cell-based, human; conditions: MV4-11; for EC50: Homo sapiens
CHRF288-11 = assay: Secondary dose-response HTS, Cell Titer Glo; format: cell-based, human; conditions: for EC50: Homo sapiens
CMK = assay: Secondary dose-response HTS, Cell Titer Glo; format: cell-based, human; conditions: CMK; for average effective concentration, CMK: secondary high-throughput screen; for EC50: Homo sapiens
CMS = assay: Secondary dose-response HTS, Cell Titer Glo; format: cell-based, human; conditions: for EC50: Homo sapiens, HTS
M07e = assay: Secondary dose-response HTS, Cell Titer Glo; format: cell-based, human; conditions: for EC50: Homo sapiens, M-07e
ML2 = assay: Secondary dose-response HTS, Cell Titer Glo; format: cell-based, human; conditions: ML-2
U937 = assay: Secondary dose-response HTS, Cell Titer Glo; format: cell-based, human; conditions: for EC50: Homo sapiens, U-937
MOLM-13 = assay: Secondary dose-response HTS, Cell Titer Glo; format: cell-based, human; conditions: MOLM-13; for EC50: Homo sapiens
MV4-11 [2] = assay: cells; set-up: species or system AML cell lines (8); Secondary HTS, 10-point dose-response in triplicate, Cell Titer Glo viability, four-parameter fit EC50; conditions: Homo sapiens, MV4-11, 72 h, read-out: MV4-11
[3] = secondary high-throughput screen
[4] = secondary high-throughput screen, CHRF288-11
[5] = secondary high-throughput screen, CMS
[6] = secondary high-throughput screen, U937
[7] = secondary high-throughput screen, M07e
[8] = secondary high-throughput screen, read-out: average effective concentration, MOLM-13
[9] = HTS, secondary high-throughput screen, CHRF288-11, read-out: average effective concentration, CHRF288-11
[10] = secondary high-throughput screen, CMS, read-out: average effective concentration, CMS
[11] = secondary high-throughput screen, M07e, read-out: average effective concentration, M07e
[12] = Homo sapiens, secondary high-throughput screen, read-out: average effective concentration, ML-2
[13] = secondary high-throughput screen, U937, read-out: average effective concentration, U937
[14] = read-out: average effective concentration, CMK
[15] = read-out: average effective concentration, CMS
[16] = secondary HTS, 72 h, average of triplicate, read-out: EC50 CHRF288-11
[17] = secondary HTS, 72 h, average of triplicate, read-out: EC50 M07e
[18] = Homo sapiens, secondary HTS, 72 h, average of triplicate, read-out: EC50 ML2
[19] = secondary HTS, 72 h, average of triplicate, read-out: EC50 U937

| Compound | average effective concentration, MV4-11 (MV4-11 [1]; [3]) | average effective concentration, CHRF288-11 (CHRF288-11; [4]) | average effective concentration, CMK (CMK) | average effective concentration, CMS (CMS; [5]) | average effective concentration, ML-2 (ML2; [3]) | average effective concentration, U937 (U937; [6]) | average effective concentration, M07e (M07e; [7]) | EC50 (CHRF288-11; [9]) [nM] | EC50 (M07e; [11]) [nM] | EC50 (ML2; [12]) [nM] | other results |
| --- | --- | --- | --- | --- | --- | --- | --- | --- | --- | --- | --- |
| C=C1C(=O)O[C@@H](CCC)[C@@H]1C(=O)O (racemic) [BUTYROLACTONE 3] | Inactive | Inactive | Inactive | Inactive | Inactive | Inactive |  |  |  |  | average effective concentration, M07e (M07e; secondary high-throughput screen, […]): Inactive |
| Cc1noc(-c2ccc(-c3ccc(CC(=O)O)cc3)cc2)c1NC(=O)O[C@H](C)c1ccccc1Cl [AM-966] | Inactive | Inactive | Inactive | Inactive | Inactive | Inactive | Inactive |  |  |  |  |
| C[C@H]1[C@H](OC(=O)CCC(=O)O)O[C@@H]2O[C@@]3(C)CC[C@H]4[C@H](C)CC[C@@H]1[C@@]24OO3 [Artesunate, reference compound] |  |  |  |  |  |  |  | 8600 | 1200 | 4600 | EC50 (MOLM-13; [8]): 1300 nM; EC50 (CMS; [10]): 5900 nM; EC50 (U937; [13]): 1000 nM |
| O=C(/C=C/c1cccc(S(=O)(=O)Nc2ccccc2)c1)NO [BELINOSTAT] |  |  |  |  |  |  |  | 240 | 190 | 350 | EC50 (MOLM-13; [8]): 270 nM; EC50 (CMK; [14]): 14 nM; EC50 (CMS; [15]): 250 nM; EC50 (U937; [13]): 170 nM; EC50 (MV4-11 [2]): > 10000 nM |
| C/C(=C\C(=O)Nc1ccccc1C(=O)O)c1ccc2ccccc2c1 [BIBR-1532] | Inactive |  | Inactive | Inactive |  | Inactive | Inactive |  |  |  |  |
| C#Cc1cccc(Nc2ncnc3cc(OC)c(OCCCCCCC(=O)NO)cc23)c1 [CUDC-101] |  |  |  |  |  |  |  | 600 | 190 | 83 | EC50 (MOLM-13; [8]): 5600 nM; EC50 (CMK; [14]): 73 nM; EC50 (CMS; [15]): 780 nM; EC50 (U937; [13]): 140 nM; EC50 (MV4-11 [2]): > 10000 nM |
| COc1ccc(-c2nc(N3CCOCC3)c3sc(CN(C)c4ncc(C(=O)NO)cn4)cc3n2)cn1 [CUDC-907, reference compound] |  |  |  |  |  |  |  | 0.89 | 0.7 | 1.7 | EC50 (MOLM-13; secondary HTS, 72 h, average of triplicate, read-out: EC50 MOLM-13): 0.4 nM; EC50 (MOLM-13; [8]): 0.447 nM; EC50 (CHRF288-11; [16]): 1 nM; EC50 (CMK; 72 h, read-out: EC50 CMK): 2 nM; EC50 (CMK; [14]): 1.9 nM; EC50 (CMS; 72 h, read-out: EC50 CMS): 1 nM; EC50 (M07e; [17]): 1 nM; EC50 (ML2; [18]): 2 nM; EC50 (U937; [19]): 4 nM |
| CC(C)Oc1ccc(-c2cnc3c(-c4ccnc5ccccc45)cnn3c2)cc1 [DMH-1] | Inactive | Inactive | Inactive | Inactive | Inactive | Inactive | Inactive |  |  |  |  |
| O=C1NCCc2c(OCCCCN3CCCCC3)cccc21 [DPQ] | Inactive | Inactive | Inactive | Inactive | Inactive | Inactive | Inactive |  |  |  |  |
| COC(=O)[C@H](CC(C)C)NC(=O)c1ccc(NCc2cnc[nH]2)cc1-c1cccc2ccccc12 [GGTI-2147] | Inactive | Inactive | Inactive | Inactive | Inactive | Inactive | Inactive |  |  |  |  |
| O=C(CCCCCCSc1ccc2ccccc2c1)NO [HNHA] | Inactive |  | Inactive | Inactive |  | Inactive | Inactive |  |  |  | EC50 (ML2; secondary high-throughput screen, read-out: average effective concentration, ML-2): 8500 nM |
| O=C(c1ccc(Cl)cc1Cl)n1nnc2ccccc21 [ITSA1] | Inactive |  | Inactive | Inactive |  | Inactive | Inactive |  |  |  |  |
| CC(N[C@H]1C[C@@H]1c1ccccc1)c1ccc2c(c1)OCCO2 (stereo partly drawn) [LSD1-C76] |  | Inactive | Inactive | Inactive | Inactive | Inactive | Inactive |  |  |  | average effective concentration, MOLM-13 (MOLM-13; [3]): Inactive |
| COc1ccc(-c2ccc3ncc4c(c3c2)n(-c2ccc(N3CCNCC3)c(C(F)(F)F)c2)c(=O)n4C)cn1 [NVP-BGT226, reference compound] |  |  |  |  |  |  |  | 55 | 250 | 230 | EC50 (MV4-11 [1]; secondary HTS, 72 h, average of triplicate, read-out: EC50 MV4-11): 50 nM; EC50 (MV4-11 [1]; secondary high-throughput screen, read-out: average effective concentration, MV4-11): 50 nM; EC50 (CHRF288-11; [16]): 50 nM; EC50 (CMK; 72 h, read-out: EC50 CMK): 60 nM; EC50 (CMK; [14]): 63 nM; EC50 (CMS; 72 h, read-out: EC50 CMS): 10 nM; EC50 (CMS; [15]): 14 nM; EC50 (M07e; [17]): 250 nM; EC50 (ML2; [18]): 230 nM; EC50 (U937; [19]): 80 nM; EC50 (U937; [13]): 80 nM |
| Cc1c(-c2cnccn2)ssc1=S [OLTIPRAZ] |  |  |  |  |  |  |  | > 10000 | > 10000 | 3100 | EC50 (MOLM-13; [8]): > 10000 nM; EC50 (CMS; [10]): 10000 nM; EC50 (U937; [13]): 5800 nM |
| NC(=O)c1cccc2ncc(-c3ccc(Cl)cc3)nc12 [PARP INHIBITOR XII] | Inactive | Inactive | Inactive | Inactive | Inactive | Inactive | Inactive |  |  |  |  |
| O=C(CCN1CCN(C(=O)OCc2cc(Cl)cc(Cl)c2)CC1)c1ccc2[nH]c(=O)oc2c1 [PF-8380] | Inactive | Inactive | Inactive | Inactive | Inactive | Inactive | Inactive |  |  |  |  |
| CN(C)CC(=O)Nc1ccc2[nH]c(=O)c3ccccc3c2c1 [PJ34] | Inactive | Inactive | Inactive | Inactive | Inactive | Inactive | Inactive |  |  |  |  |
| O=C(O)C(Cc1c[nH]c2ccccc12)N1C(=O)c2ccccc2C1=O (stereo not drawn) [RG108] | Inactive | Inactive | Inactive | Inactive | Inactive | Inactive | Inactive |  |  |  |  |
| SCH 51344 |  | Inactive | Inactive | Inactive | Inactive | Inactive | Inactive |  |  |  | average effective concentration, MOLM-13 (MOLM-13; [3]): Inactive |
